Measured values reported in ChEMBL document CHEMBL1130814, “Synthesis of 5-thiomannose-containing oligomannoside mimics: binding abilities to concanavalin A” (Bioorg Med Chem Lett, 1998).

Assay: Dissociation constant for binding affinity towards Concanavalin A determined by fluorescence anisotropy inhibition assay

| Compound | Kd |
| --- | --- |
| CO[C@H]1O[C@@H](CO[C@H]2S[C@@H](CO)[C@@H](O)[C@H](O)[C@H]2O)[C@@H](O)[C@H](O[C@H]2O[C@@H](CO)[C@@H](O)[C@H](O)[C@H]2O)[C@H]1O | 18 µM |
| CO[C@H]1O[C@@H](CO)[C@@H](O)[C@H](O[C@H]2S[C@@H](CO)[C@@H](O)[C@H](O)[C@H]2O)[C@H]1O | 1720 µM |
| CO[C@H]1O[C@@H](CO[C@H]2S[C@@H](CO)[C@@H](O)[C@H](O)[C@H]2O)[C@@H](O)[C@H](O[C@H]2S[C@@H](CO)[C@@H](O)[C@H](O)[C@H]2O)[C@H]1O | 376 µM |
| CO[C@H]1O[C@@H](CO[C@H]2O[C@@H](CO)[C@@H](O)[C@H](O)[C@H]2O)[C@@H](O)[C@H](O[C@H]2O[C@@H](CO)[C@@H](O)[C@H](O)[C@H]2O)[C@H]1O | 3 µM |
| CO[C@H]1O[C@@H](CO)[C@@H](O)[C@H](O[C@H]2O[C@@H](CO)[C@@H](O)[C@H](O)[C@H]2O)[C@H]1O | 49 µM |
| CO[C@H]1O[C@@H](CO[C@H]2S[C@@H](CO)[C@@H](O)[C@H](O)[C@H]2O)[C@@H](O)[C@H](O)[C@H]1O | 1280 µM |
| CO[C@H]1O[C@@H](CO[C@H]2O[C@@H](CO)[C@@H](O)[C@H](O)[C@H]2O)[C@@H](O)[C@H](O[C@H]2S[C@@H](CO)[C@@H](O)[C@H](O)[C@H]2O)[C@H]1O | 7 µM |
| CO[C@H]1O[C@@H](CO[C@H]2O[C@@H](CO)[C@@H](O)[C@H](O)[C@H]2O)[C@@H](O)[C@H](O)[C@H]1O | 150 µM |
